From patent US20240335464A1, “ADMINISTRATION OF STING AGONIST, CHECKPOINT INHIBITORS, AND RADIATION” (Takeda Pharmaceutical Company Limited, priority 2020, published 2024)

System: EMT6 mouse breast carcinoma syngeneic tumor
Assay: Study 2: EMT6 mouse syngeneic tumor model, subcutaneous, anti-tumor efficacy
Assay type: in vivo, female BALB/c mice
Conditions: for GRI (%) Day 21: vs vehicle; for Complete Regressions: n=10/group, 60-day study; for Combination Assessment / Synergy Score %: data through Day 21
From the text: Studies 1 and 2: EMT6 is a mouse breast carcinoma cell line. EMT6 mouse syngeneic tumor model was generated by subcutaneous (sc) inoculation with 0.2×10^6 EMT6 cells (cell suspension) in nine to ten week old female BALB/c mice (Vital River Laboratory Animal Technology Co., Ltd., Beijing, China) in the flank. When the mean tumor volume reached 60 mm^3 in Study 1 and 75 mm^3 in Study 2 the animals were randomized into one vehicle control and seven treatment groups (n=10/group). Mice were then dosed with vehicle (phosphate buffered saline (PBS)) or Compound No. 14 or 10 Gy Radiation or Compound No. 14 plus 10 Gy Radiation over an eight-day period. Tumor growth and body weight were measured three times per week during the treatment and post-treatment periods. Mice were humanely euthanized once they reached their humane endpoint or until study termination on day 72 (Study 1) or on day 60 (Study 2).
Studies 1 and 2: A 0.1 mg/mL stock solution of Compound No. 14 was formulated in PBS and administered intravenously (IV) based on exact animal body weight on each day of treatment, using a dosing volume of 10 mL/kg body weight. Final doses received were 1.0 mg/kg. […] Compound No. 14 was administered on a Q3D schedule for 3 doses (Day 2, 5 and 8) in single agent treatment group and in combination treatment groups. Dose formulation of Compound No. 14 was prepared once and utilized for dosing on Days 2, 5 and 8.
Radiation treatment for Studies 1 and 2 was performed using RadSource RS 2000 X-ray irradiator (Rad Source Technologies). Animals received 1.046 Gy/minute of radiation and approximately 9.5 min was needed to reach a 10 Gy dose delivery. Animals were anesthetized prior to placement in irradiation chamber using isoflurane and checked for reflexes. Radiation beam was focused on tumor with manual positioning. Radiation was administered via manual positioning in a single 10 Gy dose on either day 0, 2 or 4 in Study 1, and on either day 0, 1, 2, 3 or 4 in Study 2.
Tumors were measured three times weekly using vernier calipers. Tumor volumes were calculated using standard equation: V=W^2×L/2, where V=volume, W=width, and L=length for the tumor. When mean tumor volumes reached approximately 60 mm^3 for Study 1, 75 mm^3 for Study 2, and 110 mm^3 for Study 3, mice were randomized into eight groups (n=10/group) in Studies 1 and 2, and nine groups (n=8/group) in Study 3. These groups were then dosed with vehicle (PBS), Compound No. 14, Radiation, anti-mPD-1 or isotype control, or combinations of these agents as described in Tables 1a, 2a, and 3a. Tumor size and body weight were measured three times a week for the duration of each study. Mice were euthanized for Studies 1 and 2 when their tumor volumes reached greater than 10% of their body weight or when an individual tumor exceeded the humane end-point for size (>2 cm) or when an animal lost 20% of their body weight relative to the start of the study or lost 15% of their body weight in any 24 hr time frame. Mice were euthanized in Study 3 when tumor volume exceeded 2,000 mm^3 or an animal lost more than 20% of their body weight relative to the start of study.
Growth Rate Inhibition: The differences in the tumor growth trends over time between pairs of treatment groups were assessed by fitting each animal's data to a simple exponential growth model and comparing the mean growth rates of the two groups, as described in more detail below. The difference in the growth rates was summarized by the GRI, which is the reduction in growth rate experienced by the treatment group relative to that of the reference group, expressed as a fraction of the vehicle growth rate.
μT and μC are the mean tumor growth rates for the treatment and reference groups, respectively. μV is the mean tumor growth rate for the vehicle group, which in most cases is the same as the reference group.
A GRI greater than 100% is interpreted as tumor regression when the vehicle group is the same as the reference group. […]

[1] = Compound No. 14 1.0 mg/kg IV Q3D×3 + Radiation (10Gy) (Day 2)
[2] = Compound No. 14 1.0 mg/kg IV Q3D×3 + Radiation (10Gy) (Day 3)
[3] = Compound No. 14 1.0 mg/kg IV Q3D×3 + Radiation (10Gy) (Day 4)
[4] = Compound No. 14 + Radiation (10Gy) (Day 0)
[5] = Compound No. 14 + Radiation (10Gy) (Day 1)
[6] = Compound No. 14 + Radiation (10Gy) (Day 2)
[7] = Compound No. 14 + Radiation (10Gy) (Day 3)
[8] = Compound No. 14 + Radiation (10Gy) (Day 4)

Nc1ncnc2c1ncn2[C@@H]1O[C@@H]2COP(=O)(S)O[C@@H]3[C@H](O)[C@@H](COP(=O)(S)O[C@H]2[C@H]1F)O[C@H]3n1cc(F)c2c(=O)[nH]cnc21 (stereo partly drawn) [Compound No. 14]
GRI (%) Day 21 (Compound No. 14 1.0 mg/kg IV Q3D×3 (Days 2, 5, 8), single agent): 20% | GRI (%) Day 21 (Compound No. 14 1.0 mg/kg IV Q3D×3 + Radiation (10Gy) (Day 0)): 60% | GRI (%) Day 21 (Compound No. 14 1.0 mg/kg IV Q3D×3 + Radiation (10Gy) (Day 1)): 62% | Complete Regressions [1]: 2 | GRI (%) Day 21 [1]: 68% | Complete Regressions [2]: 4 | GRI (%) Day 21 [2]: 64% | Complete Regressions [3]: 2 | GRI (%) Day 21 [3]: 60% | Combination Assessment [4]: additive | Synergy Score % [4]: −20% | Combination Assessment (Compound No. 14 + Radiation (10Gy) (Day 0), listed as Compound No.14): Additive | Combination Assessment [5]: Additive | Synergy Score % [5]: −22% | Combination Assessment [6]: synergistic | Synergy Score % [6]: −28% | Combination Assessment (Compound No. 14 + Radiation (10Gy) (Day 2), listed as Compound No.14): Synergistic | Combination Assessment [7]: Additive | Synergy Score % [7]: −24% | Combination Assessment [8]: Additive | Synergy Score % [8]: −20%
